This is an account of results in US8993565B2, “(6-oxo-1,6-dihydropyrimidin-2-yl)amide derivatives, preparation thereof and pharmaceutical use thereof as AKT(PKB) phosphorylation inhibitors” (Sanofi, priority 2009, dated 2015).

In one experiment the test system is AKT protein phosphorylated on serine 473 (pAKT-S473). Briefly: Study of pAKT expression in PC3 human prostate carcinoma cells measured by western blotting (Test A). The class given is cell-based. The settings on record: PC-3, inhibition of AKT phosphorylation (pAKT-S473), 1 to 2 hours incubation, absolute IC50, mean of two experiments. As to the method: The inhibitory activity of the molecules on AKT phosphorylation is measured either by western blotting using the technique described below, or by the MSD Multi-spot Biomarker detection technique from Meso Scale Discovery also described below.
Study of pAKT Expression in PC3 Human Prostate Carcinoma Cells Measured by Western Blotting (Test A):
On day 2, the cells are incubated in the presence or absence of the test products for 1 to 2 hours at 37° C. in the presence of 5% CO2. The molecules, diluted in dimethyl sulphoxide (DMSO Sigma #D2650), are added from a 10-times concentrated stock solution, the final percentage of DMSO being 0.1%. The molecules are tested either at a single concentration of less than or equal to 10 μM, or at increasing concentrations in a range that can extend from less than 1 nM to 10 μM.
After this incubation, the cells are lysed for the preparation of the proteins.
The lysate is centrifuged for 10 min at 6000 rpm. 155 μl of supernatant are recovered. 150 μl are incubated for denaturation for 5 min at 95° C. in the presence of 4× NuPAGE LDS Sample Buffer diluted 4-fold (InVitrogen ref NP0007) and of 10× NuPAGE Sample Reducing Agent diluted 10-fold (InVitrogen ref NP0009). These samples are then frozen at −20° C.
The gel is then transferred on to an Invitrolon PVDF membrane (Invitrogen #LC2007) permeabilised beforehand and for a few seconds in ethanol (Ethanol Fischer Scientific #E/0600DF/15).
The transfer is carried out in a Biorad tank at 30 volts overnight or at 60 volts for 3 hours, in the presence of 20× NUPAGE Transfer Buffer diluted 20-fold (InVitrogen ref NP0006).
The membrane is then saturated in saturating solution composed of TBS (10× Tris Buffered Saline, Sigma #T5912, diluted 10-fold), 0.1% Tween (Sigma #P5927) and 3% BSA (Bovine Albumin Serum Fraction V, Sigma #A4503) for 6 h after overnight transfer or else for 1 h after transfer for a period of 3 h.
Two rinses for min in washing solution composed of TBS and 0.1% Tween 20 are carried out before hybridisation of the secondary antibodies.
The secondary antibodies are diluted 110000th for the rabbit anti-Mouse IgG HRP antibody (W402 Promega) and to 110000th for the goat anti-Rabbit IgG HRP antibody (W401 Promega) in saturating solution, and then shaken for 1 h at ambient temperature.
Two rinses for 30 min in washing solution are carried out and then a rinse for 5 min in H2O is carried out in order to eliminate the remaining Tween 20.
The luminescence is read with the FujiFilm device (Ray Test).
The FUJI device measures the total luminescence signal obtained (AU) for each band selected. It then subtracts the background noise (BG) proportional to the size of the band selected (Area), said background noise being calculated from a specific background noise band, with a view to obtaining the specific signal (AU-BG) for each band. The band obtained in the absence of product and in the presence of 0.1% DMSO is considered to be the 100% signal. The software calculates the % specific activity (Ratio) obtained for each band selected as a function of this 100% signal. The percentage inhibition is calculated for each concentration according to the formula (100%−Ratio).
Two independent experiments make it possible to calculate the mean of the percentages of inhibition obtained at a given concentration for the products tested only at one concentration.
Two independent experiments make it possible to calculate the mean of the IC50s.
A general note: Immunoblotting shows a protein as a band on a membrane.
Take `O=C(Cc1nc(N2CCOCC2)cc(=O)[nH]1)Nc1cccc(F)c1` [Example 14, N-(3-fluorophenyl)-2-[4-(morpholin-4-yl)-6-oxo-1,6-dihydropyrimidin-2-yl]acetamide]: the half-inhibitory concentration (IC50) is 570 nM. Still for that read-out and setting: in the case of `Cc1cccc(NC(=O)Cc2nc(N3CCOCC3)cc(=O)[nH]2)c1` [Example 23, N-(3-methylphenyl)-2-[4-(morpholin-4-yl)-6-oxo-1,6-dihydropyrimidin-2-yl]acetamide] it was 39 nM; in that of `N#Cc1cccc(NC(=O)Cc2nc(N3CCOCC3)cc(=O)[nH]2)c1` [Example 26, N-(3-cyanophenyl)-2-[4-(morpholin-4-yl)-6-oxo-1,6-dihydropyrimidin-2-yl]acetamide], 2290 nM. Consider `Cc1cc(NC(=O)Cc2nc(N3CCOCC3)cc(=O)[nH]2)ccc1F` [Example 28, N-(4-fluoro-3-methylphenyl)-2-[4-(morpholin-4-yl)-6-oxo-1,6-dihydropyrimidin-2-yl]acetamide], for which half-maximal inhibition (IC50) required 171 nM. The same measure, in the same setting: as for `O=C(Cc1nc(N2CCOCC2)cc(=O)[nH]1)Nc1ccc(F)c(Cl)c1` [Example 29, N-(3-chloro-4-fluorophenyl)-2-[4-(morpholin-4-yl)-6-oxo-1,6-dihydropyrimidin-2-yl]acetamide], the figure is 116 nM. In the case of `O=C(Cc1nc(N2CCOCC2)cc(=O)[nH]1)Nc1cccc(O)c1` [Example 32, N-(3-hydroxyphenyl)-2-[4-(morpholin-4-yl)-6-oxo-1,6-dihydropyrimidin-2-yl]acetamide], inhibition was half-maximal at 3640 nM (IC50). In the case of `O=C(Cc1nc(N2CCOCC2)cc(=O)[nH]1)Nc1ccc(F)c(Br)c1` [Example 33, N-(3-bromo-4-fluorophenyl)-2-[4-(morpholin-4-yl)-6-oxo-1,6-dihydropyrimidin-2-yl]acetamide], it took 93 nM to reach half-maximal inhibition (IC50). Same read-out and setting: as for `O=C(Cc1nc(N2CCOCC2)cc(=O)[nH]1)Nc1cc(F)c(F)c(F)c1` [Example 34, 2-[4-(morpholin-4-yl)-6-oxo-1,6-dihydropyrimidin-2-yl]-N-(3,4,5-trifluorophenyl)acetamide], the figure is 609 nM; as for `O=C(Cc1nc(N2CCOCC2)cc(=O)[nH]1)Nc1cccc(OC(F)F)c1` [Example 38, N-[3-(difluoromethoxy)phenyl]-2-[4-(morpholin-4-yl)-6-oxo-1,6-dihydropyrimidin-2-yl]acetamide], 480 nM; as for `COc1cc(NC(=O)C(C)c2nc(N3CCOCC3)cc(=O)[nH]2)ccc1F` (stereo not shown) [Example 39, N-(4-fluoro-3-methoxyphenyl)-2-[4-(morpholin-4-yl)-6-oxo-1,6-dihydropyrimidin-2-yl]propanamide], 1760 nM.

`Cc1cccc(NC(=O)Cc2nc(N3CCOCC3)cc(=O)[nH]2)c1C` [Example 40, N-(2,3-dimethylphenyl)-2-[4-(morpholin-4-yl)-6-oxo-1,6-dihydropyrimidin-2-yl]acetamide] displayed an IC50 of 1490 nM.

Regarding `Cc1cccc(NC(=O)Cc2nc(N3CCOCC3)cc(=O)[nH]2)c1F` [Example 41, N-(2-fluoro-3-methylphenyl)-2-[4-(morpholin-4-yl)-6-oxo-1,6-dihydropyrimidin-2-yl]acetamide], it took 290 nM to reach half-maximal inhibition (IC50). The same measure, in the same setting: as for `O=C(Cc1nc(N2CCOCC2)cc(=O)[nH]1)Nc1cccc2ocnc12` [Example 42, N-(1,3-benzoxazol-4-yl)-2-[4-(morpholin-4-yl)-6-oxo-1,6-dihydropyrimidin-2-yl]acetamide], the figure is 400 nM; as for `O=C(Cc1nc(N2CCOCC2)cc(=O)[nH]1)Nc1cccc(OC(F)(F)F)c1` [Example 43, 2-[4-(morpholin-4-yl)-6-oxo-1,6-dihydropyrimidin-2-yl]-N-[3-(trifluoromethoxy)phenyl]acetamide], 549 nM; as for `CC(C)Oc1cccc(NC(=O)Cc2nc(N3CCOCC3)cc(=O)[nH]2)c1` [Example 44, 2-[4-(morpholin-4-yl)-6-oxo-1,6-dihydropyrimidin-2-yl]-N-[3-(propan-2-yloxy)phenyl]acetamide], 308 nM.

`COc1cc(F)ccc1NC(=O)Cc1nc(N2CCOCC2)cc(=O)[nH]1` [Example 45, N-(4-fluoro-2-methoxyphenyl)-2-[4-(morpholin-4-yl)-6-oxo-1,6-dihydropyrimidin-2-yl]acetamide]: it took 261 nM to reach half-maximal inhibition (IC50). Molecule `O=C(Cc1nc(N2CCOCC2)cc(=O)[nH]1)Nc1ccc(F)c(C(F)(F)F)c1` [Example 47, N-[4-fluoro-3-(trifluoromethyl)phenyl]-2-[4-(morpholin-4-yl)-6-oxo-1,6-dihydropyrimidin-2-yl]acetamide] yielded an IC50 of 346 nM. Still for that read-out and setting: in the case of `C#Cc1cccc(NC(=O)Cc2nc(N3CCOCC3)cc(=O)[nH]2)c1` [Example 48, N-(3-ethynylphenyl)-2-[4-(morpholin-4-yl)-6-oxo-1,6-dihydropyrimidin-2-yl]acetamide] it was 184 nM. Molecule `O=C(Cc1nc(N2CCOCC2)cc(=O)[nH]1)Nc1ccc(F)cc1O` [Example 50, N-(4-fluoro-2-hydroxyphenyl)-2-[4-(morpholin-4-yl)-6-oxo-1,6-dihydropyrimidin-2-yl]acetamide] returned an IC50 of 6720 nM.

The molecule `O=C(Cc1nc(N2CCOCC2)cc(=O)[nH]1)N1CCc2ccccc21` [Example 51, 2-[2-(2,3-dihydro-1 H-indol-1-yl)-2-oxoethyl]-6-(morpholin-4-yl)pyrimidin-4(3H)-one] returned an IC50 of 133 nM. As to `O=C(Cc1nc(N2CCOCC2)cc(=O)[nH]1)Nc1ccc(F)c(C2CC2)c1` [Example 52, N-(3-cyclopropyle-4-fluorophenyl)-2-[4-(morpholin-4-yl)-6-oxo-1,6-dihydropyrimidin-2-yl]acetamide], the IC50 turned out to be 227 nM. `O=C(Cc1nc(N2CCOCC2)cc(=O)[nH]1)Nc1cccc(OCCO)c1` [Example 55, N-[3-(2-hydroxyethoxy)phenyl]-2-[4-(morpholin-4-yl)-6-oxo-1,6-dihydropyrimidin-2-yl]acetamide] returned a concentration for half-maximal inhibition (IC50) of 10000 nM. Consider `O=C(Cc1nc(N2CCOCC2)cc(=O)[nH]1)Nc1cccc(I)c1` [Example 56, N-(3-iodophenyl)-2-[4-(morpholin-4-yl)-6-oxo-1,6-dihydropyrimidin-2-yl]acetamide], for which inhibition was half-maximal at 137 nM (IC50). The same measure, in the same setting: in the case of `COC(=O)c1cc(NC(=O)Cc2nc(N3CCOCC3)cc(=O)[nH]2)ccc1F` [Example 57, methyl 2-fluoro-5-({[4-(morpholin-4-yl)-6-oxo-1,6-dihydropyrimidin-2-yl]acetyl}amino)benzoate] it was 5860 nM. Consider `O=C(Cc1nc(N2CCOCC2)cc(=O)[nH]1)N1CCOc2ccccc21` [Example 62, 2-[2-(2,3-dihydro-4H-1,4-benzoxazin-4-yl)-2-oxoethyl]-6-(morpholin-4-yl)pyrimidin-4(3H)-one], for which half-maximal inhibition (IC50) was put at 530 nM. In turn, `O=C(Cc1nc(N2CCOCC2)cc(=O)[nH]1)Nc1ccc(F)c([N+](=O)[O-])c1` [Example 63, N-(4-fluoro-3-nitrophenyl)-2-[4-(morpholin-4-yl)-6-oxo-1,6-dihydropyrimidin-2-yl]acetamide] yielded an IC50 of 6160 nM. The molecule `O=C(Cc1nc(N2CCOCC2)cc(=O)[nH]1)Nc1cc(F)ccc1O` [Example 65, N-(5-fluoro-2-hydroxyphenyl)-2-[4-(morpholin-4-yl)-6-oxo-1,6-dihydropyrimidin-2-yl]acetamide] registered a half-maximal inhibitory concentration (IC50) of 6460 nM. The molecule `Cn1c(CC(=O)Nc2ccc(F)cc2)nc(N2CCOCC2)cc1=O` [Example 67, N-(4-fluorophenyl)-2-[1-methyl-4-(morpholin-4-yl)-6-oxo-1,6-dihydropyrimidin-2-yl]acetamide] came in with an IC50 of 2210 nM.

For another experiment, the system named is AKT protein phosphorylated on serine 473 (P-AKT-S473). The experiment in a line: Study of pAKT expression in PC3 human prostate carcinoma cells measured by the MSD Multi-spot Biomarker Detection technique (Test B). The class given is cell-based. The settings on record: PC-3, inhibition of AKT phosphorylation (P-AKT-S473), MSD sandwich immunoassay, 1 to 2 h incubation, absolute IC50, mean of 2 experiments. In short, it runs like this: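 Lysate P-AKT-S473 quantified by MSD electrochemiluminescent sandwich immunoassay; inhibition vs DMSO and cell-free background, IC50 averaged over 2 experiments.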
Molecule `O=C(Cc1nc(N2CCOCC2)cc(=O)[nH]1)Nc1cccc(F)c1` [Example 14, N-(3-fluorophenyl)-2-[4-(morpholin-4-yl)-6-oxo-1,6-dihydropyrimidin-2-yl]acetamide] showed an IC50 of 74 nM. The molecule `Cc1cccc(NC(=O)Cc2nc(N3CCOCC3)cc(=O)[nH]2)c1F` [Example 41, N-(2-fluoro-3-methylphenyl)-2-[4-(morpholin-4-yl)-6-oxo-1,6-dihydropyrimidin-2-yl]acetamide] came in with an IC50 of 60 nM.

As to `O=C(Cc1nc(N2CCOCC2)cc(=O)[nH]1)Nc1cccc2ocnc12` [Example 42, N-(1,3-benzoxazol-4-yl)-2-[4-(morpholin-4-yl)-6-oxo-1,6-dihydropyrimidin-2-yl]acetamide], it took 148 nM to reach half-maximal inhibition (IC50).

As usually defined, the IC50 is the concentration that inhibits the measured activity by half. Lower therefore signals inhibition by little substance.
